Laboratory results as given in publication PMC8878047 (Pharmaceutics, 2022).
Values after ≈ are worked out from the molar mass of the structure shown.

Key:
KM mice = type: in vivo; conditions: high-dose group, dead mice, HE staining
Method: After the acute toxicity test, the dead mice after oral administration and the surviving mice at the end of the observation period were promptly dissected and pathologically examined. […] We dissected the important organs (heart, liver, spleen, lung, kidney, large intestine, and small intestine) of dead mice and normal mice in the high-dose group of each drug solution. Then, the main organs were fixed in 10% buffered formalin and embedded in paraffin for 1–4 h. They were histopathologically examined under the optical microscope after slicing and staining with hematoxylin-eosin (HE) staining. No fixed parameters were compared between the treatment and control groups.

[1] = rat, in vivo, po
[2] = Water solubility by UV-Vis (Lambert–Beer law); type: physicochemical; conditions: thermodynamic from solid, saturated aqueous solution, 30× dilution, room temperature / 35 °C (method)
Excerpt: We diluted this solution into a series of working solutions to measure their UV-Vis spectra.

Staphylococcus aureus = experiment: In vitro antibacterial activity (MIC/MBC, doubling dilution); type: cell-based; conditions: S. aureus, 37 °C, 24 h
Method: (§1) The clinically typical pathogens (Staphylococcus aureus, Escherichia coli, Pseudomonas aeruginosa, Salmonellosis typhoidal and Proteus vulgaris) were obtained from the Department of Microbiology and Immunology of Guangxi Medical University. We cultured the bacterial suspension of five pathogens in bouillon culture-medium at 37 °C, and diluted it into 0.5 McFarland Standard with bioclean normal saline (the volume ratio of each bacterial suspension and bioclean normal saline was 1:1000, and the concentration of bacterial suspension was 1~2 × 10^8 CFU/mL). […] We carried out the assays for MIC and MBC evaluation by doubling the dilution under sterile operation on the clean bench. To be specific, we set the sterile test tubes numbered 1–10 for comparison according to the half-dilution method. We added the broth medium to each test tube to fix the final volume to be 2 mL. […] Then, we filled each tube with 50 μL of inoculated bacteria colony, except for tube no. 9, which was the negative control. The final colony concentration in each test tube was 2 × 10^5 CFU/mL. Tube no. 10 was set as a blank without the tested drug. […] We repeated all tests in triplicate.

Proteus vulgaris = experiment: as above; type: cell-based; conditions: P. vulgaris, 37 °C, 24 h
Method: as §1

Pseudomonas aeruginosa = experiment: as above; type: cell-based; conditions: P. aeruginosa, 37 °C, 24 h
Method: as §1

| SMILES | histopathological finding in kidney tissue (KM mice) | histopathological finding in lung tissue (KM mice) | Cl ([1]; male, SD) [mL/min/kg] | Vd ([1]; male, SD) [L/kg] | Tmax [1] [H] | solubility [2] [µg/mL] | MBC (Staphylococcus aureus) [µg/mL] | MIC (Staphylococcus aureus) [µg/mL] | MBC (Proteus vulgaris) [µg/mL] | MIC (Proteus vulgaris) [µg/mL] | MBC (Pseudomonas aeruginosa) [µg/mL] | MIC (Pseudomonas aeruginosa) [µg/mL] |
| --- | --- | --- | --- | --- | --- | --- | --- | --- | --- | --- | --- | --- |
| CCN1CCN(c2cc3c(cc2F)c(=O)c(C(=O)[O-])cn3C2CC2)CC1.CCN1CCN(c2cc3c(cc2F)c(=O)c(C(=O)[O-])cn3C2CC2)CC1.O.O.O.O.[Ca+2] [EFX-Ca, [Ca(EFX)2(H2O)4]·H2O] | enlargement of the renal capsule | significant inflammatory cell infiltration of the lung tissue | – | – | – | – | – | – | – | – | – | – |
| CCN1CCN(c2cc3c(cc2F)c(=O)c(C(=O)O)cn3C2CC2)CC1 [EFX, enrofloxacin, reference compound] | – | – | 0.6167 | 1.05316 | 1 | 204 (≈ 568 µM) | 0.25 (≈ 0.696 µM) | 0.25 (≈ 0.696 µM) | 0.125 (≈ 0.348 µM) | 0.125 (≈ 0.348 µM) | 0.125 (≈ 0.348 µM) | 0.125 (≈ 0.348 µM) |
